Test results reported in patent US20180221352A1, “3-(1H-PYRROLO[2,3-C]PYRIDIN-2-YL)-1H-PYRAZOLO[3,4-B]PYRIDINES AND THERAPEUTIC USES THEREOF” (Samumed, LLC, priority 2015, published 2018).
pEC50: −log10 of the molar value.

Tests used:
Format in all cases: cell-based
[1] = tested on: Wnt activity (Sp5-Luc reporter, SW480 colon carcinoma cells); test: Wnt activity screening assay, Sp5-Luc reporter gene in SW480 cells; conditions: Homo sapiens; for inhibition at 10 µM: SW480, read-out: percent inhibition at 10 μM; for pEC50: Sp5-Luc reporter, SW480 cells, overnight incubation
Procedure, shortened: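 SW480 cells stably carrying a luciferase reporter driven by an Sp5 promoter with eight TCF/LEF sites, plated overnight in 1% FBS medium at 37 °C. Luminescence read with BrightGlo. Signals normalized to DMSO-treated cells; EC50 from four-parameter variable-slope fit.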

SW480 colon cancer cells = test: Cell viability assay (CellTiter-Blue); conditions: Homo sapiens; for pEC50: 96 h, SW480 cell viability, four days; for inhibition at 10 µM: SW480, 96 h, read-out: percent inhibition at 10 μM
Procedure, shortened: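 Fluorescence from resazurin reduced to resorufin by metabolically active cells was the read-out, taken after ~3 h with CellTiter-Blue.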

[2] = tested on: primary human fibroblasts derived from IPF patients (LL29 cells); test: Inhibition of fibrotic process, αSMA staining in TGF-β1 treated fibroblasts; conditions: Fibroblast; for pEC50: 96 h, LL29 cells, TGF-β1 20 ng/mL, 4 days, % αSMA positive cells; for inhibition at 10 µM: read-out: percent inhibition at 10 μM
Procedure, shortened: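 LL29 fibroblasts plated in F12 with 1% FBS were stimulated with TGF-β1 alongside compound, with TGF-β1 plus DMSO wells as controls. After 4 days of incubation, SYTOX green was added at 1 μM final for 30 min at room temperature.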

[3] = tested on: primary human mesenchymal stem cells (hMSCs); test: Induction of chondrogenesis in hMSCs (nodule count); conditions: 6 days; for EC50: concentration required to induce 50% levels of chondrogenesis vs TGF-β3, read-out: Conc (nM) of 50% TGF-β3 activity; for Emax: relative to TGF-β3 (10 ng/mL) positive control, read-out: Max. Activity as % TGF-β3 activity
Source text: Representative compounds were screened using primary human mesenchymal stem cells (hMSCs) to determine their ability to induce chondrogenesis (process by which cartilage is developed).
Primary human mesenchymal stem cells (hMSCs) were purchased from Lonza (Walkersville, Md.) and expanded in Mesenchymal Stem Cell Growth Media (Lonza). Cells between passage 3 and 6 were used for the experiments.
To image chondrogenic nodules, the cells were fixed using 4% formaldehyde (Electron Microscopy Sciences), and stained with 2 μg/mL Rhodamine B (Sigma-Aldrich) and 20 μM Nile Red (Sigma-Aldrich) [Johnson K., et. al, A Stem Cell-Based Approach to Cartilage Repair, Science, (2012). […] Number of nodules in each well was normalized to the average of 3 DMSO treated wells on the same plate using Excel (Microsoft Inc.). The normalized averages (fold change over DMSO) of 3 replicate wells for each compound concentration were calculated. Due to solubility limitations of some of the compounds, curve fitting was incomplete leading to inaccurate EC50 determinations.
Using TGF-β3 as a positive control, the concentration of representative compounds required to induce 50% levels of chondrogenesis is reported. In addition, the maximum activity of each compound and the respective dose that each compound reached maximum chondrogenesis activity is reported.

IL-6 = IL-6 inhibition in LPS-stimulated THP-1 cells (HTRF); conditions: Homo sapiens; for pEC50: THP-1 cells, LPS 500 ng/mL, 22 hours, IL6 HTRF; for inhibition at 10 µM: THP-1, read-out: percent inhibition at 10 μM
Procedure, shortened: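 Serum-reduced (1% FBS, 24 h) THP-1 cells, 5000/well, exposed to compound 2 h at 37 °C, then stimulated with 500 ng/mL LPS for 22 h. Secreted IL-6 measured by HTRF (665/620 ratio), normalised to DMSO; EC50 by four-parameter fit, duplicates.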

| SMILES | inhibition at 10 µM [1] [%] | pEC50 [1] | pEC50 (SW480 colon cancer cells) | inhibition at 10 µM (SW480 colon cancer cells) [%] | pEC50 [2] | inhibition at 10 µM [2] [%] | EC50 [3] [nM] | Emax [3] [%] | pEC50 (IL-6) | inhibition at 10 µM (IL-6) [%] |
| --- | --- | --- | --- | --- | --- | --- | --- | --- | --- | --- |
| CC(C)C(=O)Nc1cncc(-c2cnc3[nH]nc(-c4cc5c(-c6cc(F)cc(CNS(C)(=O)=O)c6)cncc5[nH]4)c3c2)c1 [Compound 485, N-(5-(3-(4-(3-Fluoro-5-(methylsulfonamidomethyl)phenyl)-1H-pyrrolo[2,3-c]pyridin-2-yl)-1H-pyrazolo[3,4-b]pyridin-5-yl)pyridin-3-yl)isobutyramide] | 49.8 | < 5.00 | < 5.00 | 14 | < 5.00 | 0 | 30 | 60 | 7.57 | – |
| CCCC(=O)Nc1cncc(-c2cnc3[nH]nc(-c4cc5c(-c6cc(F)cc(CNS(C)(=O)=O)c6)cncc5[nH]4)c3c2)c1 [Compound 493, N-(5-(3-(4-(3-Fluoro-5-(methylsulfonamidomethyl)phenyl)-1H-pyrrolo[2,3-c]pyridin-2-yl)-1H-pyrazolo[3,4-b]pyridin-5-yl)pyridin-3-yl)butyramide] | – | 5.77 | < 5.00 | 46.1 | 5.05 | – | – | 37 | 7.03 | – |
| CS(=O)(=O)NCc1cc(F)cc(-c2cncc3[nH]c(-c4n[nH]c5ncc(-c6cncc(NC(=O)C7CC7)c6)cc45)cc23)c1 [Compound 496, N-(5-(3-(4-(3-Fluoro-5-(methylsulfonamidomethyl)phenyl)-1H-pyrrolo[2,3-c]pyridin-2-yl)-1H-pyrazolo[3,4-b]pyridin-5-yl)pyridin-3-yl)cyclopropanecarboxamide] | – | 5.58 | < 5.00 | 49.3 | 5.45 | – | – | 23 | 7.03 | – |
| CN(C)CCOc1cncc(-c2cnc3[nH]nc(-c4cc5c(-c6ccc(F)cc6)cncc5[nH]4)c3c2)c1 [Compound 531, 2-((5-(3-(4-(4-Fluorophenyl)-1H-pyrrolo[2,3-c]pyridin-2-yl)-1H-pyrazolo [3,4-b]pyridin-5-yl)pyridin-3-yl)oxy)-N,N-dimethylethan-1-amine] | 48.5 | < 5.00 | 5.44 | – | < 5.00 | 11.4 | – | 28 | < 5.00 | 22.9 |
| Fc1ccccc1-c1cncc2[nH]c(-c3n[nH]c4ncc(-c5cn[nH]c5)cc34)cc12 [Compound 539, 3-(4-(2-Fluorophenyl)-1H-pyrrolo[2,3-c]pyridin-2-yl)-5-(1H-pyrazol-4-yl)-1H-pyrazolo[3,4-b]pyridine] | – | 6.38 | 6.19 | – | 7.00 | – | 100 | 51 | 6.77 | – |
| Cc1ncc(-c2cnc3[nH]nc(-c4cc5c(-c6ccncc6)cncc5[nH]4)c3c2)n1C [Compound 573, 5-(1,2-Dimethyl-1H-imidazol-5-yl)-3-(4-(pyridin-4-yl)-1H-pyrrolo[2,3-c]pyridin-2-yl)-1H-pyrazolo[3,4-b]pyridine] | 7.1 | < 5.00 | < 5.00 | 19.8 | < 5.00 | 46.7 | 10 | 194 | < 5.00 | 0 |
